Data reported in patent US20210386877A1, “RADIOTHERAPEUTIC COMBINATION THERAPY FOR THE TREATMENT OF CANCER” (Andarix Pharmaceuticals, Inc., priority 2019, published 2021).
*1 amine or outer side, *2 acyl side, *3 side chain or, on linkers, in order; H or OH if unused. Where a SMILES comes first, the peptide text is derived from it. Bridges are numbered along the chain shown (N, C = ends). Roman numbers before positions name the chains, in order. [ ]: non-standard residue; d: D form. ξ: configuration not given here. Phe(4-NH2) = Nc1ccc(C[C@H](N)C(=O)O)cc1; NMehCys = CN[C@@H](CCS)C(=O)O; Thr(3ξ) = CC(O)[C@H](N)C(=O)O; Dap = NC[C@H](N)C(=O)O; X1 = O=C(C[*:1])[*:2]

Legend:
SSTR = settings: P2045 radiolabeled with radioactive isotopes of rhenium; versus Depreotide; cited from earlier work
[1] = P2045 radiolabeled with radioactive isotopes of rhenium; versus Depreotide; cited from earlier work
[2] = intravenously, 1.5 mg/m^2, daily×5, every 21 days; cited from earlier work
SSTR2 = SSTR2 expression in small cell cell lines after 24 hours of incubation (FIG. 2, FIG. 3); type: cell-based; settings: H69, H187 and H417 cell lines, 3 and 5 mM valproic acid, versus beta-actin (control)
Description: FIG. 3 graphically quantifies the expression of SSTR2 in small cell cell lines after 24 hours of incubation with 3 and 5 mM valproic acid versus the demethylating agent, Decitabine.
FIG. 3 graphically quantifies the expression of SSTR2 […].

[3] = cited from earlier work

For `CC(O)[C@H](NC(=O)[C@H](CS)NC(=O)[C@H](Cc1ccc(N)cc1)NC(=O)[C@@H](N)CNC(=O)CSCC[C@H]1C(=O)N[C@@H](Cc2ccc(O)cc2)C(=O)N[C@H](Cc2c[nH]c3ccccc23)C(=O)N[C@@H](CCCCN)C(=O)N[C@@H](C(C)O)C(=O)N[C@@H](Cc2ccccc2)C(=O)N1C)C(=O)N[C@@H](CO)C(=O)O` (stereo partly drawn) [P2045, cyclo-[Tyr-(D-Trp)-Lys-Thr-Phe-(N-Me)Hcy]CH2CO-β-Dap-Phe(4-NH2)-Cys-Thr-Ser-OH)]] (I: cyclo(F[NMehCys]Y[dW]K[Thr(3ξ)]) / II: H-[Dap][Phe(4-NH2)]C[Thr(3ξ)]S-OH; linker I:2-II:1 via X1), the SSTR affinity (SSTR) is given as “retains the SSTR affinity of Depreotide” and the “kidney and whole body retention” value [1] is given as “lower kidney and whole body retention”.
In the case of `CC[C@@]1(O)C(=O)OCc2c1cc1n(c2=O)Cc2cc3c(CN(C)C)c(O)ccc3nc2-1` [topotecan], the most common toxicities [2] is listed as “hematologic (grade 4 neutropenia, thrombocytopenia and grade 3/4 anemia)”.
For `CCCC(CCC)C(=O)O` [valproic acid], the SSTR2 expression (SSTR2) is given as “upregulation of SSTR2” and the “solubility in organic solvents” value [3] is given as “very soluble”.
